What was measured:
[1] = tested on: AKT/mTOR/p70S6/Cyclin D1 signaling pathway; assay: activation kinetics of mTOR signaling pathway, HCT116/p53+/+; type: cell-based, human; settings: 0.5 µM
Procedure: Due to the crucial role of p53 as a tumor-suppressing agent, it was analyzed in HCT116 cells how FM19G11 affected the activation kinetics of proteins involved in favoring cell cycle progress, specifically the mTOR cell signaling pathway. An increase of cell progress can be due to replicative stress which generates DNA damage (Bartkova, J, Horejsi, Z, Koed, K, Kramer, A, Tort, F, Zieger, K et al., (2005) DNA damage response as a candidate anti-cancer barrier in early human tumorigenesis. Nature 434: 864-70; Bartkova, J, Rezaei, N, Liontos, M, Karakaidos, P, Kletsas, D, Issaeva, N et al., (2006) Oncogene-induced senescence is part of the tumorigenesis barrier imposed by DNA damage checkpoints. Nature 444: 633-7; Di Micco, R, Fumagalli, M, Cicalese, A, Piccinin, S, Gasparini, P, Luise, C et al., (2006) Oncogene-induced senescence is a DNA damage response triggered by DNA hyper-replication. Nature 444: 638-42), it was explored if the DDR triggered by FM19G11 was related to an increase of the cell cycle progress signal modulated by the mTOR signaling pathway. […]

[2] = tested on: Sox2, Oct4, Nanog, TGF-alpha, Notch1; assay: expression of undifferentiated state markers in epSPCs (sqPCR, Western blot); type: cell-based, rat
Procedure: The primary culture of adult spinal cord ependymal neural progenitors (epSPC) was performed according to the conditions already set forth in Example 35.1.
Detection of the transcriptional and transductional expression levels of genes responsible for maintaining the undifferentiated state, Sox2, Oct4, Nanog, TGF-alpha: Total RNA was isolated using the commercial kit RNAeasy (Qiagen) and following the manufacturer's instructions. 1 µg of total RNA of each sample was retrotranscribed using the commercial kit Reverse Transcription Reagent (Applied Biosystem). The semiquantitative polymerase chain reaction (sqPCR) was carried out using the primers detailed below, for the amplification of the messenger RNAs of Sox2, Oct4, Nanog, TGF-alpha and GAPDH. The sqPCR was developed in an Eppendorf thermal cycler in a final volume of 50 µl, using 1 U of Taq Polymerase, 40 ng of cDNA (equivalent amount of total RNA), and 300 nM of each primer. The program chosen for the amplification was: [95°C, 3 min] x1, [55°C, 30 sec, 72°C, 5 min, 95°C 30 sec] x 35 and 72°C 10 min. The expression levels were viewed in a 1% agarose gel in 1x TAE buffer stained with ethidium bromide. The changes of expression due to the loading difference were corrected by the differential expression of the GAPDH constitutive expression gene. The experiments were performed in triplicate (with cells from three different rats).
The levels of proteins of the undifferentiated state markers Sox2, Oct4, Nanog and Notch1 were determined by immunological analysis (Western Blot) following the methodology described in Example 35.1. The primary antibodies for the detection of Sox2, Oct4, Nanog and Notch1 were acquired from Abcam (UK) and the expression of beta-actin (antibody acquired in Sigma Aldrich Co., UK) served as a loading control.

c-FOS = assay: selectivity luciferase assay, Hek 293-TRE-LUC; type: cell-based; settings: 0-1 µM, 6 hours
Procedure: The selectivity assays with the active compound FM19G11 were performed in white 96-well plates using the recombinant strains Hek 293-TRE-LUC and Hek 293-CRE-LUC which represent the transcriptional activity of transcription factors of the AP-1 complex. The luciferase assay for measuring transcriptional activity was performed using the kit Bright-Glo™ Luciferase Assay System (Promega, Inc., Madison, WI), following the instructions supplied by the manufacturer and the Hek 293-TRE-LUC and Hek 293-CRE-LUC lines contain the response elements of transcription factors of the AP-1 complex, specifically of c-FOS and JUNB, respectively. The Hek 293-TRE-LUC and Hek 293-CRE-LUC lines were provided by Dr. Rosa Farrás.

[3] = tested on: medaka (Oryzias latipes) embryos; assay: toxicity on medaka embryos; type: in vivo
Procedure: In the first place, for the zebrafish embryos, various experiments were performed with 10, 6 and 4 embryos per well in a volume of 100 microl, in early (between 1 and 8) and late (more than 20) stages of 1 x Yamamoto buffer, culturing the embryos at 26°C for 24 hours, and the compound FM19G11 was subsequently added at concentrations of 10 microM and 50 microM with negative controls without additives to analyze the endogenous mortality of the embryos and with 1% and 5% DMSO (solvent of the compound) to analyze the mortality of the solvent. In all the cases the solvent induced a high lethality between 60% and 90%.
The same experiments were performed using medaka embryos for which DMSO has not lethal effects at concentrations less than 5%. Six embryos per well, a final volume of 100 µl and independent experiments with embryos in blastula and neurula stages were used.
To prevent the possibility that FM19G11 may not be traversing the protective layer of the embryo (chorion), the compound at a concentration of 0.5 mM was microinjected into the chorionic space (between the embryo and the chorion). Experiment 1: n=15, 20% induced mortality, DMSO control = 0%. The result was the same, no anomaly being observed in the development of the embryo, nor any effect on the viability of the injected embryos. The images of Figure 19 show medaka embryos subjected to the treatment with FM19G11 at 50 microM for 4 days (A) 10 medaka embryos in a well of a multi-well plate; B and C, photos of embryos treated with 50 microM FM19G11 for 1 day; and D a photo of a medaka embryo which was not treated with the compound.

For Cc1ccc(C(=O)COC(=O)c2cccc(NC(=O)c3ccc([N+](=O)[O-])cc3[N+](=O)[O-])c2)cc1 [FM19G11, 2-oxo-2-(p-tolyl)ethyl 3-((2,4-dinitro)benzamido)benzoate], the “activation of the AKT/mTOR/p70S6/Cyclin D1 signaling pathway (fold change)” value [1] was ≥ 2, the “messenger RNA of Sox2 and Oct4 and their target genes Nanog and TGF-α” value ([2]; 500 nM, 48 hours, 1% O2) was “down-regulation” and the “expression of Sox2, Oct4, Nanog and Notch1” value ([2]; 500 nM, 48 hours, normoxic (~20% O2)) was “significantly induces”. For the same compound, the “expression of both proteins, Sox2 and Oct4” value ([2]; increasing concentrations, 1% O2) was “inhibits in a dose-dependent manner”, the “expression of the two isoforms of HIFα, p300, Sox2, Oct3/4 in ependymal cells” value ([2]; physical hypoxic conditions) was “decrease” and the “transcriptional levels of Hek 293-TRE-LUC” value (c-FOS) was “not affected in any case”. For the same compound, the induced mortality ([3]; 0.5 mM microinjected into the chorionic space, n=15) was 20%, the “viability of the embryos” value ([3]; 10 microM and 50 microM in the well) was “does not affect the viability” and the lethality ([3]; 10 microM and 50 microM in the well, blastula and neurula stages) was “no significant lethality”.
